This test concerns the target T1, heparanase (Homo sapiens, UniProt Q9Y251).
T1 construct: the supernatant was recovered as cell extract; endogenous in cells; host or cells: A431 cells (human epithelial carcinoma), Triton X-100 lysate supernatant
T1 sequence (Q9Y251 158-543 limits assumed): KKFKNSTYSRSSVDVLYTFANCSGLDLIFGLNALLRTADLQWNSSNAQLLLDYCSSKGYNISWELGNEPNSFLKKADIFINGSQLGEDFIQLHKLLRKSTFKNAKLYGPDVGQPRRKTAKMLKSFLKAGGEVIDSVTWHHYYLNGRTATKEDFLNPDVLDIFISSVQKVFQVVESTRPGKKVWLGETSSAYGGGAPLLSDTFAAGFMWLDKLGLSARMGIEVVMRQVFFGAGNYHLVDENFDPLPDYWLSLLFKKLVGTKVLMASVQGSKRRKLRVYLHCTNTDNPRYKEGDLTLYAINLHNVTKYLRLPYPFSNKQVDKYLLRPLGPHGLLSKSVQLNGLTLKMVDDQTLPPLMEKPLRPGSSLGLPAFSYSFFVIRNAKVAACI
T1 sequence (Q9Y251 36-109 limits assumed): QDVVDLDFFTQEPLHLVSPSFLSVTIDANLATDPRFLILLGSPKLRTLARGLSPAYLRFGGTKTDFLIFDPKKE
Kind of test: Evaluation based on heparanase activity inhibition rate (A431 cell extract, biotinylated heparan sulfate-immobilized plate). The format is biochemical. As to conditions: 37° C., 2 hours. Here is the method: In the primary evaluation using heparanase activity as the index, as described in detail in the examples which follow, biotinylated heparan sulfate was immobilized in 96 wells, after which heparanase was allowed to act in the presence of a drug, and the amount of reduction in biotinylated heparan sulfate was used to evaluate the heparanase activity by the reaction with peroxidase-labeled avidin and coloration.
A431 cells (human epithelial carcinoma cells) were cultured in 10% serum-containing DMEM (Dulbecco's modified Eagle medium). The cultured cells were solubilized in lysis buffer (50 mM Tris, 0.5% TritonX-100, 0.15 M sodium chloride, pH 4.5) and collected with a scraper, and then pipetted and allowed to stand on ice for 30 minutes. This was followed by centrifugation at 10,000 rpm for 10 minutes to remove the insoluble portion, and the supernatant was recovered as cell extract. The amount of protein in the cell extract was measured with a BCA protein assay kit (BCA Protein Assay Kit, PIERCE, CA46141).
The A431 cell extract was then diluted to 500 μg/mL with assay buffer (50 mM HEPES, 50 mM sodium acetate, 150 mM sodium chloride, 9 mM calcium chloride, 0.1% BSA). […] After further rinsing 3 times with PBS-T, TMB reagent (BIO-RAD, 172-1066) was added at 100 μL/well and reacted therewith, the reaction was terminated with 1N sulfuric acid, and the absorbance at 475 nm (OD475) was measured.
Also, DMSO was added to a serial diluent prepared with the aforementioned A431 cell extract assay buffer (cell extract concentrations: 500 μg/mL, 50 μg/mL, 5 μg/mL, 0.5 μg/mL), to a final concentration of 5% without addition of the test compound, to obtain a mixture (solution for calibration curve). The solution for the calibration curve was subjected to the treatment of the same procedure described above, from seeding of the biotinylated heparan sulfate-immobilized plate, and the OD475 was measured. […]

For the compound `O=C1NCCN1CCO` [1-(2-Hydroxyethyl)-2-imidazolidinone, 1-(2-hydroxyethyl)-2-imidazolidinone], the Heparanase inhibition rate (addition concentration 0.05%) is 99.40%.

Compound `O=C1CCCN1CCO` [1-(2-Hydroxyethyl)-2-pyrrolidone, 1-(2-hydroxyethyl)-2-pyrrolidone] registered a Heparanase inhibition rate (addition concentration 0.05%) of 99.00%.

On to `O=C1NCCN1` [2-Imidazolidinone, 2-imidazolidinone], for which the Heparanase inhibition rate (addition concentration 0.5%) is 99.95%.

The values above are taken from US8901160B2, “Heparanase activity inhibitor” (Shiseido Company, Ltd., priority 2009, dated 2014).
